# According to patent publication US5232684A, “Labelled resiniferatoxin, compositions thereof, and methods for using the same” (priority 1990, dated 1993):
# Where two headings read alike, the source gives them in different places.
# What was measured:
# [1] = target: T1, capsaicin receptor (rat DRG membranes) (Rattus norvegicus, UniProt O35433); test: biochemical; type: binding
# T1 construct: membrane preparations from dorsal root ganglia (DRG) of female Sprague-Dawley rats; from tissue; host or cells: dorsal root ganglia of female Sprague-Dawley rats
# Experimental: Membrane preparations are obtained from the DRG and Gasser ganglia of female Sprague-Dawley rats (250-300 g); animals are sacrificed by decapitation under ether anesthesia, the ganglia removed and collected into ice-cold disrupting buffer (5 mM KCl, 5.8 mM NaCl, 2 mM MgCl2, 12 mM glucose, 137 mM sucrose, 10 mM HEPES, 5 mM DTT, 2 mM EGTA, pH 7.4). After homogenization with the aid of a Polytron tissue homogenizer, samples are filtered over surgical gauze and then washed twice with the same buffer and stored at -70° C. Particulate fractions are obtained from other rat neural tissues (cerebellum, spinal cord, preoptic region, striatum, substantia nigra) and from DRG of pigs (Mt. Airy Locker Co., Mt. Airy, MD), sheep, cows (kindly provided by Dr. Solomon, USDA, Beltsville, MD), and chickens (Truslow Farms, Chesterton, MD) by a similar procedure.
# The binding assays are carried out in a volume of 250 ul, containing assay buffer (same as the disrupting buffer but omitting DTT and EGTA and including 0.75 mM CaCl2), 26-30 ug of membrane protein and 0.25 mg/ml bovine serum albumin. […] Tubes are kept on ice while the additions are made. The assay mixture is incubated for 10 min at 37° C.; it is then cooled on ice. 150 ul of the mixture is pipetted onto Whatman GF/C or GF/F glass fiber filters presoaked with 10 mg/ml bovine serum albumin in 20 mM Tris-Cl (pH 7.4) and filtered immediately. An aliquot of 50 ul of the mixture is removed to determine total radioactivity. The filters are washed with 100 ml of ice-cold 20 mM Tris-Cl, pH 7 4, containing 0.1 mg/ml bovine serum albumin, and the bound radioactivity is determined by scintillation counting. Non-specific binding is determined in the presence of 100-1000 nM non-radioactive RTX.
# Binding data from saturation experiments using increasing concentrations of hot ligand are analyzed using the collection of computer programs described by McPherson (McPherson, G.A., Analysis of radioligand binding experiments: a collection of computer programs for the IBM PC, J.Pharmacol.Methods, 14 (1985) 213-228).
# Scatchard and Hill transformations are performed by the Equilibrium Binding Data Analysis program referred to as EBDA. Data are further analyzed by the curvilinear regression program LIGAND (Munson, R.J. and Rodbard, D., LIGAND: a versatile computerized approach for characterization of ligand-binding systems, Anal.Biochem, 107 (1980) 220-239).
# RTX binding is also analyzed in the presence of a fixed, low (60 pM or 300 pM) concentration of [^3 H]RTX and increasing concentrations of non-radioactive RTX or other ligand. […] The Ki value for RTX is calculated from the relationship Ki =ID50 -L; the Ki values for other ligands are calculated from the general form of the equation (Cheng, Y.C. and Prusoff, W.H., Relation between the inhibition constant (Ki) and the concentration of inhibitor which causes 50 per cent inhibition (I50) of an enzymatic reaction, Biochem. Pharmacol., 22 (1973) 3099-3108) Ki =IC50 /(1+L/Kd) where L=concentration of labelled ligand and Kd =dissociation constant of radioactive ligand as determined in the saturation experiments using variable concentrations of hot ligand. Comparison of the quality of fit using single and multiple site competition models is performed by the LIGAND program.
# [^3 H]RTX binding is examined using membrane preparations from dorsal root ganglia (DRG) of female Sprague-Dawley rats.
# [2] = target: T2, capsaicin receptor (chicken DRG) (Gallus gallus, UniProt Q8QFN9); test: [^3H]RTX binding to chicken DRG membranes
# T2 construct: homotetramer
# T2 sequence (Q8QFN9 1-843): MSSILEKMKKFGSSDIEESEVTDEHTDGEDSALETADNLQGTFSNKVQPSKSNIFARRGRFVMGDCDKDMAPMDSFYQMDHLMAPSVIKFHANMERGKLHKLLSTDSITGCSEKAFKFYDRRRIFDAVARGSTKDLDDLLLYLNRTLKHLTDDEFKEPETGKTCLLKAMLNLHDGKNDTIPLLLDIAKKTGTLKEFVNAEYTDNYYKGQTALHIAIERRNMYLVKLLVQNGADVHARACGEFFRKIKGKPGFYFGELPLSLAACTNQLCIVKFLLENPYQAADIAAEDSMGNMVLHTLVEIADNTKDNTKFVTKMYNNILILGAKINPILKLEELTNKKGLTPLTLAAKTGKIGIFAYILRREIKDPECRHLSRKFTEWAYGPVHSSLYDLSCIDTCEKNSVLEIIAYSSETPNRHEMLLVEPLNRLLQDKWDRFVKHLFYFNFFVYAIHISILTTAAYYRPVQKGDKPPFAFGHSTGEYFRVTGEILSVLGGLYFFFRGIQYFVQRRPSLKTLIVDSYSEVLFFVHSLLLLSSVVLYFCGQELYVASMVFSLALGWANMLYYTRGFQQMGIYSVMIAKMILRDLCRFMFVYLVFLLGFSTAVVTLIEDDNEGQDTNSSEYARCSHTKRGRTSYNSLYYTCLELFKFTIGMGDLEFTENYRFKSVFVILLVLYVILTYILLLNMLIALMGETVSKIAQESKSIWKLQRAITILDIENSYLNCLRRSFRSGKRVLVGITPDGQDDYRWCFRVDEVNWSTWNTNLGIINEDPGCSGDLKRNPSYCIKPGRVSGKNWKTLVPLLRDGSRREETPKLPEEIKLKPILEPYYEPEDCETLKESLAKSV
# [3] = system: rat brain preoptic region; test: [^3H]RTX binding to rat brain preoptic region
# Sprague-Dawley rats = test: Induction of ear edema in Sprague-Dawley rats; type: in vivo, rat; details: 2×10^-7 g/ear
# Text: [^3 H]RTX (37 Ci/mmol) is synthesized by esterification of resiniferonol 9,13,14-orthophenylacetate (Chemicals for Cancer Research, Inc., Chaska, MN) at the C20 position with [^3 H]homovanillic acid (Chemical Synthesis and Analysis Laboratory, NCI-FCRF, Frederick, MD). The labelled compound is purified on HPLC and cochromatographed with authentic RTX (Chemicals for Cancer Research, Inc., Chaska, MN). The biological activity of [^3 H]RTX is confirmed in 2 assays: induction of hypothermia in CD-1 mice (10^-5 g/kg s.c.) and induction of ear edema in Sprague-Dawley rats (2×10^-7 g/ear).
# T1 sequence (O35433 whole entry): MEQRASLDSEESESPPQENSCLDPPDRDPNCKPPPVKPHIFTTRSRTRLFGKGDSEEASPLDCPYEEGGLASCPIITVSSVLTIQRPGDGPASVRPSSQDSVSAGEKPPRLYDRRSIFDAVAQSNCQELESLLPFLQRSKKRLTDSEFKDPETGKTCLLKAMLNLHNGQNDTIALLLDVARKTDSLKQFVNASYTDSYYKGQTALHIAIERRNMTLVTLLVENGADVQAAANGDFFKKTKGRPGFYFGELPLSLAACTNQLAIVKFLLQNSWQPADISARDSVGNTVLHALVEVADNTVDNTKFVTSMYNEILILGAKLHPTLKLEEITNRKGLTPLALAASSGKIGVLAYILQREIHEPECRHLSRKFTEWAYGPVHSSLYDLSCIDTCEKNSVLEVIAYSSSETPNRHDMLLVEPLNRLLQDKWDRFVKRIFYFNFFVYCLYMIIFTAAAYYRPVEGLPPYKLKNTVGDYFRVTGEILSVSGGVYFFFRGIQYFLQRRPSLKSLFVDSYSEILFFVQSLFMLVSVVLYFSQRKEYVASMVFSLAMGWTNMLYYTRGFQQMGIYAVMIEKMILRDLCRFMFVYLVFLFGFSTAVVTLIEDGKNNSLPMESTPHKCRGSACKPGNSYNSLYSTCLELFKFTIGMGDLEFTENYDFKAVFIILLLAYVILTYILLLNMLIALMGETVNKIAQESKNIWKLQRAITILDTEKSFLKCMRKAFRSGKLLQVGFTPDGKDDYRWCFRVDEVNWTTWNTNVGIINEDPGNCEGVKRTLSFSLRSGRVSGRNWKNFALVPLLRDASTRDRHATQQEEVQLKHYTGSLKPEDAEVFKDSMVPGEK
compound,measurement,setting,value
"C=C(C)[C@]12C[C@@H](C)[C@@]34O[C@](Cc5ccccc5)(O[C@@H]1[C@@H]3C=C(COC(=O)Cc1ccc(O)c(OC)c1)C[C@]1(O)C(=O)C(C)=C[C@@H]41)O2 [[^3 H]RTX, [^3 H]resiniferatoxin]",Bmax (summary),[1]; rat DRG,160 fmol/mg
same,specific binding to the DRG membranes,[1]; rat DRG,"specific, saturable binding"
same,Hill coefficient,[1]; rat DRG membranes,0.96
same,specific binding of the total at the Kd,"[1]; rat DRG membranes, at the Kd",approximately 50%
same,Bmax (Scatchard analysis),"[1]; rat DRG membranes, 3 separate determinations",150 fmol/mg protein
same,Kd,"[1]; rat DRG membranes, data cumulated from 3 separate determinations, read-out: Kd (Scatchard analysis)",0.3 nM
same,"Bmax (curvilinear analysis, LIGAND)","[1]; rat DRG membranes, final parameter estimate",160 fmol/mg protein
same,Kd,"[1]; rat DRG membranes, one site model, final parameter estimate, read-out: Kd (curvilinear analysis, LIGAND)",0.27 nM
same,Kd,"[1]; rat DRG, read-out: Kd (summary)",0.27 nM
same,binding in DRG from chickens,[2],not detected
same,detection of [^3H]RTX binding,[3],very difficult
same,biological activity: induction of ear edema,Sprague-Dawley rats,confirmed
